In US20110173707A1 (priority 2008, published 2011):
≈ marks a conversion by molar mass, not a printed value. Starred links: 1 amine or outer side, 2 acyl side, 3 side chain; linkers in the order of their positions; H or OH if unused. Positions of bridges follow the written chain, without caps; N, C: chain ends. Non-standard residues stand in square brackets, D forms with d. Residues, ends and D or L forms follow the SMILES beside them. X1 = CC1CC(C2=NC(C(=O)[*:2])CS2)N1[*:1]; NMeV = CN[CH](C(=O)O)C(C)C; X2 = O=C(C(O)CO[*:2])[*:1]; Pip = O=C(O)[CH]1CCCCN1; Dhb = C/C=C(\N)C(=O)O

Experiments:
[1] = system: vesicular stomatitis virus (VSV); assay type: cell-based
[2] = according to a publication; cited from earlier work
[3] = system: type I IFN response (IFN-β induced Mx2-driven luciferase activity); test: Type I IFN reporter cell assay (Mx2-driven Firefly luciferase, NIH3T3 Mx2-Luc2); assay type: cell-based, murine
Experimental: In FIG. 6A the type I IFN reporter cells were pretreated with different concentrations of Vioprolide A (0, 5, 10, 30, 50 or 100 ng/ml). After pre-treatment for two hours cells were stimulated with IFN-β (500 U/ml) in the continuous presence of the indicated Vioprolide concentrations. In FIG. 6B type I IFN reporter cells were pretreated with IFN-β ([…]). After four hours cells were additionally stimulated with different concentrations of Vioprolide A (0, 5, 10, 30, 50 or 100 ng/ml). Untreated cells were used as control (Crtl). Luciferase activity was measured after 24 hours and relative luminescent units (RLU) were calculated to one μg of protein detected by Bradford assay.
For measuring type I IFNs BAC-based reporter constructs have been used. BACs harbouring the cDNA of Firefly luciferase 2 (luc2) under control of the Mx2 promoter were engineered, NIH3T3 Mx2-Luc2. The change from Luc+ (pGL3 basic, Promega) used in the before mentioned reporter constructs to the next generation luciferase (pGL4.10, Promega) was performed, as Luc2 theoretically promised to achieve higher signal intensities and therefore might also be more practicable for further in vivo imaging experiments. This newly generated BAC was electroporated into the murine fibroblast cell line NIH/3T3.
After overnight incubation luciferase activity was determined and calculated according to protein levels to scale with the antiproliferative effects of Vioprolide. […] The median inhibitory concentration (IC50), which reduces IFN-induced responses by 50%, was calculated to be 10 ng/ml of Vioprolide A.
In FIG. 6A type I IFN reporter cells, NIH3T3 Mx2-Luc2 were pretreated with different concentrations of Vioprolide A (−, 5, 10, 30, 50 or 100 ng/ml). After pre-treatment for two hours cells were stimulated with IFN-β (500 U/ml) in the continuous presence of the indicated Vioprolide concentrations. In FIG. […] type I IFN reporter cells were pretreated with IFN-β (500 U/ml). After four hours cells were additionally stimulated with different concentrations of Vioprolide A (−, 5, 10, 30, 50 or 100 ng/ml). Untreated cells were used as control (CM). Luciferase activity was measured after 24 hours and relative luminescent units (RLU) were calculated to one μg of protein detected by Bradford assay.
Next, the effect of Vioprolide A on previously activated type I IFN signalling was addressed. This was performed to exclude a direct inhibitory interaction of this natural compound with IFN molecules or their cognate receptors type I IFN reporter cells were therefore stimulated with IFN-β four hours prior to treatment with different Vioprolide A concentrations. After overnight incubation cells were harvested and luciferase activity was assayed. […] A first significant reduction of luciferase activity (for p<0.05) could be visualized with 30 ng/ml Vioprolide A (FIG. 6B). The IC50 was identified to 20 ng/ml.

[4] = system: type I IFN responses (IFN-inducible Mx2-promoter, tdTomato); test: Mx2Tom reporter cells, tdTomato expression by flow cytometry; assay type: cell-based; conditions: IFN-β plus different concentrations, overnight incubation
Experimental: This allowed assessment of the Vioprolide A effect on the IFN system on a single cell level. Thus, cells were stimulated with IFN-β as wells as different concentrations of Vioprolide A and expression of tdTomato was analyzed after overnight incubation using flow cytometry.

[5] = system: type I interferon response (Mx2-promoter controlled luciferase); test: Bioluminescent imaging of type I IFN reporter mice (BAC Mx2Luc2); assay type: in vivo; conditions: 20 μg i.v., IFN-β i.v. after 1 h
Experimental: In FIG. 8 the inhibitory response of Vioprolide A on the type I interferon response is shown. In FIG. 8A a female type I IFN reporter mice, which contain the IFN-responsive BAC Mx2Luc2, were i.v. treated with 20 μg of Vioprolide A (in 100% EtOH). First image was taken immediately after Vioprolide A treatment. After 1 h mice were i.v. injected with 5.000 U/ml IFN-β (PBL). Three hours after IFN-treatment second series of images were taken. For control one animal was only treated with Vioprolide A or with IFN, respectively. Bioluminescent images were obtained using the IVIS200 System (Xenogen). […] Rainbow scales indicate number of photons measured per second×cm2×sr.
For the following in vivo experiment 20 μg of Vioprolide A were employed. This amount was calculated according to a publication appointing the lethal dose of this compound to be 3 mg/kg and moreover to concentrations used for anti-tumour studies Thus, type I IFN reporter mice were intravenously injected with Vioprolide A and subjected for bioluminescent imaging. After one hour mice were additionally treated with IFN-β and responses were assessed after a three-hour incubation time. […]
In FIG. 8A female type I IFN reporter mice, which contain the IFN-responsive BAC Mx2Luc2, were i.v. treated with 20 μg of Vioprolide A (in 100% EtOH). […] Rainbow scales indicate number of photons measured per second×cm2×sr.

[6] = system: type II IFN response (IFN-γ, Gbp2 promoter); test: Type II IFN reporter cell assay (Gbp2-driven Renilla luciferase, NIH3T3 Gbp2-RLuc); assay type: cell-based, murine; conditions: 500 U/ml IFN-γ, Vioprolide A one hour later, all concentrations tested (50, 100, 200 ng/ml); not related to protein
Experimental: IFN-γ reporter NIH/3T3 cells harbouring the recombinant BAC Gbp2RLuc were seeded on 96-well-plates and treated with IFN-γ ([…]) or left untreated (“−”). After one hour cells were exposed to different concentrations of Vioprolide A (−, 50, 100 or 200 ng/ml) and incubated overnight. Gbp2-driven Renilla luciferase expression was determined by luciferase assay. Results are expressed as fold induction of basal expression (n=3).
In addition, Vioprolide A might also modulate type II IFN responses. […] Hereby, expression of Renilla luciferase is driven by the type II IFN responsive promoter of the Gbp2 gene obtained using a BAC containing the GBP2 gene locus and following the method described above. In this experiment, reporter cells, NIH3T3 Gbp2-RLuc were seeded on […], stimulated with 500 U/ml IFN-γ and one hour later incubated with different concentrations of Vioprolide A. Afterwards the IFN response was analysed by quantifying Renilla luciferase activity. Since this assay was performed on a microtiter format, quantification of protein amounts by former used BCA as well as Bradford assay was impossible. […] Thus, evidence for a negative influence of Vioprolide A on both type I and type II IFN responses was provided.

SMILES: C/C=C1\NC(=O)C2CSC(=N2)C2CC(C)N2C(=O)C(CC(C)C)NC(=O)C(C)NC(=O)C(O)COC(=O)C(C(C)C)N(C)C(=O)C(C(C)O)NC(=O)C2CCCCN2C1=O (stereo not shown) [Vioprolide A] (AL[X1][Dhb][Pip]T[NMeV]; linker N-C via X2; configuration not given here)
- effect on IFN-mediated antiviral activities [1]: inhibitory effect on IFN-mediated antiviral activities
- lethal dose [2]: 3 mg/kg
- reporter expression ([3]; 100 ng/ml, IFN-β four hours prior to treatment): significant reduction of reporter expression
- Mx2-driven luciferase activity at strongest inhibition ([3]; 100 ng/ml, pre-treatment 2 h before IFN-β, FIG. 6A): dramatic decrease of Mx2-driven luciferase activity down to background levels
- IC50 on previously activated type I IFN signalling ([3]; IFN-β (500 U/ml) four hours prior to Vioprolide A, FIG. 6B): 0.02 µg/mL (≈ 0.0232 µM)
- concentration giving first significant reduction of luciferase activity (p<0.05) ([3]; IFN-β four hours prior to Vioprolide A, FIG. 6B): 30 ng/mL
- median inhibitory concentration (IC50), which reduces IFN-induced responses by 50% ([3]; Vioprolide A two hours prior to IFN-β (500 U/ml), luciferase related to protein, FIG. 6A): 0.01 µg/mL
- impact on IFN responses in vitro compared within the class of Vioprolides ([3]; cell culture systems, screening): highest impact on IFN responses in vitro
- effect on the type I IFN response ([3]; pre-treatment 2 h before IFN-β, all concentrations tested (5-100 ng/ml)): inhibitory effect
- effect on tdTomato reporter expression [4]: dose-dependent inhibitory effect
- light emission after IFN treatment relative to combined IFN and Vioprolide stimulation ([5]; 3 h after IFN, average radiance, FIG. 8B): ten times higher
- luciferase activity by optical imaging versus animal given IFN-β alone ([5]; imaging 3 h after IFN, one mouse per stimulation): less luciferase activity
- response to type II IFN (Renilla luciferase activity) [6]: decreased response to type II IFN
